Measurements reported in ChEMBL document CHEMBL5506059, “Cyanomethylquinolones as a New Class of Potential Multitargeting Broad-Spectrum Antibacterial Agents” (J Med Chem, 2024).
In brackets after ≈: the same amount, converted by molar mass. Activity calls are given as the source filed them. The calls are words filed in the database; no cut-off is given here.

What was measured:
Acinetobacter baumannii = assay: Antibacterial activity against Acinetobacter baumannii clinical isolate assessed as inhibition of bacterial growth incubated for 24 hrs; format: functional
Pseudomonas aeruginosa [1] = assay: Antibacterial activity against Pseudomonas aeruginosa ATCC 27853 assessed as inhibition of bacterial growth incubated for 24 hrs; format: functional
Staphylococcus aureus [2] = assay: Antibacterial activity against methicillin resistant Staphylococcus aureus clinical isolate assessed as inhibition of bacterial growth incubated for 24 hrs; format: functional
Enterococcus faecalis [3] = assay: Antibacterial activity against Enterococcus faecalis clinical isolate assessed as inhibition of bacterial growth incubated for 24 hrs; format: functional
Pseudomonas aeruginosa [4] = assay: Antibacterial activity against Pseudomonas aeruginosa clinical isolate assessed as inhibition of bacterial growth incubated for 24 hrs; format: functional
Klebsiella pneumoniae = assay: Antibacterial activity against Klebsiella pneumoniae clinical isolate assessed as inhibition of bacterial growth incubated for 24 hrs; format: functional
Escherichia coli [5] = assay: Antibacterial activity against Escherichia coli ATCC 25922 assessed as inhibition of bacterial growth incubated for 24 hrs; format: functional
Pseudomonas aeruginosa [6] = assay: Resistance development in Pseudomonas aeruginosa assessed as fold increase in MIC measured after 20 days relative to control; format: functional; details: time 20 day
Escherichia coli [7] = assay: Antibacterial activity against Escherichia coli clinical isolate assessed as inhibition of bacterial growth incubated for 24 hrs; format: functional
Staphylococcus aureus [8] = assay: Antibacterial activity against Staphylococcus aureus ATCC 25923 assessed as inhibition of bacterial growth incubated for 24 hrs; format: functional
Staphylococcus aureus [9] = assay: Resistance development in methicillin resistant Staphylococcus aureus assessed as fold increase in MIC measured after 20 days relative to control; format: functional; details: time 20 day
Staphylococcus aureus [10] = assay: Antibacterial activity against Staphylococcus aureus clinical isolate assessed as inhibition of bacterial growth incubated for 24 hrs; format: functional
Staphylococcus aureus [11] = assay: Antibacterial activity against Staphylococcus aureus ATCC 29213 assessed as inhibition of bacterial growth incubated for 24 hrs; format: functional
[12] = Hemolytic activity in human Red blood cells at 256 ug/ml measured after 1.5 hrs by absorbance based assay relative to control; format: toxicity, cell-based, Erythrocyte; details: red blood cells (erythrocytes), at 256 µg/mL, read-out: Activity
Pseudomonas aeruginosa [13] = assay: Antibacterial activity against ciprofloxacin-treated Pseudomonas aeruginosa ATCC 27853 assessed as inhibition of bacterial growth measured after 24 hrs; format: functional
Staphylococcus aureus [14] = assay: Antibacterial activity against methicillin resistant Staphylococcus aureus clinical isolate assessed as inhibition of bacterial growth at 1 times MIC incubated under dark condition and measured upto 5 hrs relative to control; format: functional
Staphylococcus aureus [15] = assay: Antibacterial activity against ciprofloxacin-treated Staphylococcus aureus ATCC 6538 assessed as inhibition of bacterial growth measured after 24 hrs; format: functional
Pseudomonas aeruginosa [16] = assay: Resistance development in Pseudomonas aeruginosa assessed as increase in MIC measured after 20 days; format: functional, organism-based; details: time 20.0 day
[17] = Cytotoxicity against human FHC assessed as inhibition of cell growth measured after 24 hrs by MTT assay; format: toxicity, cell-based; details: FHC cells
Staphylococcus aureus [18] = assay: Antibacterial activity against methicillin-resistant Staphylococcus aureus ATCC 43300 assessed as inhibition of bacterial growth incubated for 24 hrs; format: functional
Cell membrane [19] = assay: Induction of cell membrane permeability in methicillin-resistant Staphylococcus aureus assessed as increase in fluorescence intensity at 1 to 2 ug/ml incubated for 6 hrs by PI staining based fluorescence analysis; format: cell membranes; details: dose 1-2 µg/ml
Cell membrane [20] = assay: Induction of cell membrane depolarization in Pseudomonas aeruginosa assessed as increase in fluorescence intensity at 1 ug/ml measured for 30 mins by DiSC35 dye based fluorescence analysis; format: cell membranes; details: dose 1.0 µg/ml
[21] = Cytotoxicity against HUVEC cells assessed as cell viability at 25 ug/ml measured after 24 hrs by MTT assay relative to control; format: toxicity, cell-based; details: human, at 25 µg/mL, read-out: Activity
Enterococcus faecium = assay: Antibacterial activity against Enterococcus faecium ATCC 19434 assessed as inhibition of bacterial growth incubated for 24 hrs; format: functional
Cell membrane [22] = assay: Induction of cell membrane permeability in Pseudomonas aeruginosa assessed as increase in fluorescence intensity at 1 to 2 ug/ml incubated for 6 hrs by PI staining based fluorescence analysis; format: cell membranes; details: dose 1-2 µg/ml
HUVEC = assay: Cytotoxicity against HUVEC cells assessed as reduction in cell viability at 0.78 to 25 ug/ml measured after 24 hrs by MTT assay; format: toxicity, cell-based; details: human, dose 0.78-25 µg/ml
Cell membrane [23] = assay: Induction of cell membrane damage in Pseudomonas aeruginosa assessed as increase in nucleic acid leakage at 0 to 2 ug/ml incubated for 12 hrs by optical density based microplate reader analysis; format: cell membranes; details: dose 0-2 µg/ml
Cell membrane [24] = assay: Induction of cell membrane damage in methicillin-resistant Staphylococcus aureus assessed as increase in nucleic acid leakage at 0 to 2 ug/ml incubated for 12 hrs by optical density based microplate reader analysis; format: cell membranes; details: dose 0-2 µg/ml
Enterococcus faecalis [25] = assay: Potency index, ratio of norfloxacin MIC to test compound MIC for antibacterial activity against vancomycin-resistant Enterococcus faecalis clinical isolate p1-2007225053 assessed as inhibition of bacterial growth incubated for 24 hrs; format: functional
Staphylococcus aureus [26] = assay: Resistance development in methicillin resistant Staphylococcus aureus assessed as increase in MIC measured after 20 days; format: functional, organism-based; details: time 20.0 day
Staphylococcus aureus [27] = assay: Antibacterial activity against methicillin resistant Staphylococcus aureus assessed as reduction in metabolic activity by measuring reduction in fluorescence intensity at 0.5 to 2 times MIC incubated for 6 hrs by alamar blue assay; format: functional, organism-based
[28] = Cytotoxicity against human normal Squamous epithelial cell (NOK) assessed as inhibition of cell growth measured after 24 hrs by MTT assay; format: toxicity, cell-based; details: normal squamous epithelial cells (NOK)
Pseudomonas aeruginosa [29] = assay: Antibacterial activity against Pseudomonas aeruginosa assessed as reduction in metabolic activity by measuring reduction in fluorescence intensity at 0.5 to 2 times MIC incubated for 6 hrs by alamar blue assay; format: functional, organism-based
L02 = assay: Cytotoxicity against human L02 cells assessed as reduction in cell viability at 0.78 to 25 ug/ml measured after 24 hrs by MTT assay; format: toxicity, cell-based; details: l02, 24 h, dose 0.78-25 µg/ml
Staphylococcus aureus [30] = assay: Antibacterial activity against Staphylococcus aureus CMCC(B)26003 assessed as inhibition of bacterial growth incubated for 24 hrs; format: functional
Staphylococcus aureus [31] = assay: Antibacterial activity against Staphylococcus aureus ATCC 12600 assessed as inhibition of bacterial growth incubated for 24 hrs; format: functional
Pseudomonas aeruginosa [32] = assay: Induction of intracellular ROS generation in Pseudomonas aeruginosa assessed as increase in fluorescence intensity at 2 ug/ml incubated for 6 hrs by DCFH-DA dye based fluorescence analysis; format: functional, organism-based; details: dose 2.0 µg/ml
Pseudomonas aeruginosa [33] = assay: Induction of intracellular ROS generation in Pseudomonas aeruginosa assessed as increase in fluorescence intensity at 2 ug/ml incubated for 6 hrs in presence of N-acetyl-L-cysteine by DCFH-DA dye based fluorescence analysis; format: functional, organism-based; details: dose 2.0 µg/ml
Staphylococcus aureus [34] = assay: Antibiofilm activity in methicillin resistant Staphylococcus aureus assessed as biofilm eradication measured after 24 hrs by crystal violet staining based analysis; format: functional, organism-based; details: dose 1-2 µg/ml
Pseudomonas aeruginosa [35] = assay: Antibiofilm activity in Pseudomonas aeruginosa assessed as biofilm eradication measured after 24 hrs by crystal violet staining based analysis; format: functional, organism-based; details: dose 1-2 µg/ml
Enterococcus faecalis [36] = assay: Antibacterial activity against vancomycin-resistant Enterococcus faecalis clinical isolate p1-2007225053 assessed as inhibition of bacterial growth incubated for 24 hrs; format: functional
Staphylococcus aureus [37] = assay: Antibacterial activity against Staphylococcus aureus CMCC(B)26001 assessed as inhibition of bacterial growth incubated for 24 hrs; format: functional
Enterococcus faecalis [38] = assay: Potency index, ratio of ciprofloxacin MIC to test compound MIC for antibacterial activity against vancomycin-resistant Enterococcus faecalis clinical isolate p1-2007225053 assessed as inhibition of bacterial growth incubated for 24 hrs; format: functional
Erythrocyte = assay: Hemolytic activity in human Red blood cells assessed as concentration required for 5% hemolysis measured after 1.5 hrs by absorbance based assay; format: toxicity, cell-based
Streptococcus pyogenes = assay: Antibacterial activity against Streptococcus pyogenes ATCC 19615 assessed as inhibition of bacterial growth incubated for 24 hrs; format: functional
Enterococcus faecalis [39] = assay: Antibacterial activity against vancomycin-resistant Enterococcus faecalis clinical isolate p1-2007226001 assessed as inhibition of bacterial growth incubated for 24 hrs; format: functional
Cell membrane [40] = assay: Induction of cell membrane depolarization in methicillin-resistant Staphylococcus aureus assessed as increase in fluorescence intensity at 1 ug/ml measured for 30 mins by DiSC35 dye based fluorescence analysis; format: cell membranes; details: dose 1.0 µg/ml
Streptococcus pneumoniae = assay: Antibacterial activity against Streptococcus pneumoniae ATCC 6305 assessed as inhibition of bacterial growth incubated for 24 hrs; format: functional
Staphylococcus aureus [41] = assay: Antibacterial activity against Staphylococcus aureus ATCC 6538 assessed as inhibition of bacterial growth incubated for 24 hrs; format: functional
[42] = tested on: Staphylococcus epidermidis; assay: Antibacterial activity against Staphylococcus epidermidis ATCC 12228 assessed as inhibition of bacterial growth incubated for 24 hrs; format: functional

NC1CCN(c2c(F)cc3c(=O)c(C(=O)O)cn(C4CC4)c3c2Cl)C1 (stereo unspecified) [CLINAFLOXACIN]
MIC (Acinetobacter baumannii): 0.5 µg/mL (≈ 1.37 µM)
MIC (Pseudomonas aeruginosa [1]): 0.5 µg/mL (≈ 1.37 µM)
MIC (Staphylococcus aureus [2]): 1 µg/mL (≈ 2.73 µM)
MIC (Enterococcus faecalis [3]): 4 µg/mL (≈ 10.9 µM)
MIC (Pseudomonas aeruginosa [4]): 0.5 µg/mL (≈ 1.37 µM)
MIC (Klebsiella pneumoniae): 0.5 µg/mL (≈ 1.37 µM)
MIC (Escherichia coli [5]): 0.25 µg/mL (≈ 0.683 µM)
fold change (FC) (Pseudomonas aeruginosa [6]): 16
MIC (Escherichia coli [7]): 0.25 µg/mL (≈ 0.683 µM)
MIC (Staphylococcus aureus [8]): 0.5 µg/mL (≈ 1.37 µM)
fold change (FC) (Staphylococcus aureus [9]): 8
MIC (Staphylococcus aureus [10]): 0.5 µg/mL (≈ 1.37 µM)
MIC (Staphylococcus aureus [11]): 0.5 µg/mL (≈ 1.37 µM)

C[C@H]1COc2c(CC#N)c(F)cc3c(=O)c(C(=O)O)cn1c23
hemolysis at 1.5 h, 256 ug/ml [12]: < 1%
MIC (Pseudomonas aeruginosa [13]): 2 µg/mL (≈ 6.62 µM)
inhibition (INH) (Staphylococcus aureus [14]): ~100%
MIC (Staphylococcus aureus [15]): 2 µg/mL (≈ 6.62 µM)
Activity (Pseudomonas aeruginosa [16]): inactive
IC50 at 24 h [17]: 21 µg/mL (≈ 69.5 µM)
MIC (Staphylococcus aureus [18]): 0.125 µg/mL (≈ 0.414 µM)
MIC (Acinetobacter baumannii): 0.25 µg/mL (≈ 0.827 µM)
Activity (Cell membrane [19]): Active
MIC (Pseudomonas aeruginosa [1]): 0.25 µg/mL (≈ 0.827 µM)
Activity (Cell membrane [20]): Active
viability at 24 h, 25 ug/ml [21]: > 90%
MIC (Enterococcus faecium): 0.5 µg/mL (≈ 1.65 µM)
Activity (Cell membrane [22]): Active
Activity (HUVEC): Non-Toxic
Activity (Cell membrane [23]): Active
Activity (Cell membrane [24]): Active
Ratio (Enterococcus faecalis [25]): 8
Activity (Staphylococcus aureus [26]): inactive
MIC (Staphylococcus aureus [2]): 0.5 µg/mL (≈ 1.65 µM)
MIC (Enterococcus faecalis [3]): 2 µg/mL (≈ 6.62 µM)
Activity (Staphylococcus aureus [27]): Active
IC50 at 24 h [28]: 54 µg/mL (≈ 179 µM)
MIC (Pseudomonas aeruginosa [4]): 0.25 µg/mL (≈ 0.827 µM)
MIC (Klebsiella pneumoniae): 1 µg/mL (≈ 3.31 µM)
Activity (Pseudomonas aeruginosa [29]): Active
MIC (Escherichia coli [5]): 0.25 µg/mL (≈ 0.827 µM)
Activity (L02): Non-Toxic
MIC (Staphylococcus aureus [30]): 0.125 µg/mL (≈ 0.414 µM)
MIC (Staphylococcus aureus [31]): 0.25 µg/mL (≈ 0.827 µM)
MIC (Escherichia coli [7]): 1 µg/mL (≈ 3.31 µM)
Activity (Pseudomonas aeruginosa [32]): Active
MIC (Staphylococcus aureus [8]): 0.25 µg/mL (≈ 0.827 µM)
Activity (Pseudomonas aeruginosa [33]): inactive
Activity (Staphylococcus aureus [34]): Dose-Dependent Effect
Activity (Pseudomonas aeruginosa [35]): Dose-Dependent Effect
MIC (Enterococcus faecalis [36]): 0.125 µg/mL (≈ 0.414 µM)
MIC (Staphylococcus aureus [37]): 0.125 µg/mL (≈ 0.414 µM)
Ratio (Enterococcus faecalis [38]): 2
HC5 (Erythrocyte): > 10000 µg/mL
MIC (Streptococcus pyogenes): 2 µg/mL (≈ 6.62 µM)
MIC (Enterococcus faecalis [39]): 0.5 µg/mL (≈ 1.65 µM)
Activity (Cell membrane [40]): Active
MIC (Staphylococcus aureus [10]): 0.25 µg/mL (≈ 0.827 µM)
MIC (Streptococcus pneumoniae): 0.5 µg/mL (≈ 1.65 µM)
MIC (Staphylococcus aureus [41]): 0.25 µg/mL (≈ 0.827 µM)
MIC (Staphylococcus aureus [11]): 0.5 µg/mL (≈ 1.65 µM)
MIC [42]: 0.25 µg/mL (≈ 0.827 µM)
